Read-outs that look alike come from different tables or passages of the source.
How the values were obtained:
[1] = cited from earlier work
[2] = Stability of curcumin in the receptor medium; format: physicochemical; conditions: 6% Volpo in water, 35 °C, at 0, 1, 6, 12 and 24 h
Procedure: Standard solutions of curcumin (5, 10, 12.5 and 25 µg/mL) were prepared in a 6% Volpo aqueous solution and stored at 35 ± 0.5 °C for 24 h. Samples removed at 1, 6, 12 and 24 h were assayed for drug content by HPLC.

Amount of curcumin remaining [2]	SMILES	log P [1]	log P ([1]; no reference given)
	CCCCOC(=O)c1ccc(O)cc1 [butyl paraben, reference compound]	3.6	
> 99%	COc1cc(/C=C/C(=O)CC(=O)/C=C/c2ccc(O)c(OC)c2)ccc1O [curcumin, Curcumin]		3.6

From PMC6956259, “Mechanistic Evaluation of Enhanced Curcumin Delivery through Human Skin In Vitro from Optimised Nanoemulsion Formulations Fabricated with Different Penetration Enhancers” (Pharmaceutics, 2019)
